Laboratory results as given in patent publication US11147219B2, “Methods and systems for growing plants using silicate-based substrates, cultivation of enhanced photosynthetic productivity and photosafening by utilization of exogenous glycopyranosides for endogenous glycopyranosyl-protein derivatives, and formulations, process and systems for the same” (Innovation Hammer, LLC, priority 2011, dated 2021).
“Also recorded” adds a separate entry of the source.

How the values were obtained:
plants = test: Relative potency of glycosides on plants (stated, no method); details: in vivo
[1] = test system: radish "Cherry Bell" Raphanus sativus L.; test: Greenhouse foliar treatment of radish, root dry weight; format: in vivo; details: for active concentration applied for growth response: foliar, radish
Method: Plant responses to formulations of an alkyl-α-D-mannopyranose and an electron donating-aryl-α-D-mannopyranose were consistent with preferred binding tendencies to displace glucose from storage. Plants were maintained in automated greenhouses controlled for temperature, light and circulation. Environmental conditions during the course of the studies averaged 13:11 hour L:D photoperiod, 25°:20° C. day:night and 20% to 80% relative humidity. Sunlight was supplemented with electrical illumination to achieve photosynthetically active radiation levels ranging from 350 to 600 μmol photons·m^−2·s^−1 at the level of the phylloplane. Solutions for treated and control plants were applied within an hour, otherwise subjecting all plants to identical conditions consistent with good laboratory practices. Solutions applied to controls included nutrients and surfactants identical to the treatment solution, but without the active compound. General supplementation of foliar formulations included the following: 10-100 mM ammonium salt; 1-6 ppm manganese, Mn-EDTA; and 5-10 ppm calcium, Ca-EDTA. For example, foliar solutions of 0.3 mM p-aminophenylmannopyranoside, hereafter referred to as APM, were supplemented with 23 mM ammonium sulfate, (NH4)2SO4, 3 ppm Mn and 6 ppm Ca; and Nutrient Control contained 23 mM (NH4)2SO4, 3 ppm Mn and 6 ppm Ca. The foliar concentrations of Mn and Ca were higher than those specified previously because of the low volumes of foliar applications relative to hydroponic root immersion volumes, and they were particularly effective in combination with foliar applications of compounds because they supported high rates of productivity in the treated plants without phytotoxicity. Compounds for experimentation included the following: methyl-α-D-mannopyranoside (MeM), APM, and methyl-α-D-glucopyranoside (MeG). All foliar solutions were formulated with 1 gm/liter surfactant blend consisting of 0.5 gram DowCorning Q5211 dispersed into 1.5 grams BASF Pluronic L62. As a matter of course, untreated controls that foliar nutrients and wetting agents were not introducing artifacts. The standard volume for foliar application of experimental treatments was 200 liters/hectare. Identical volumes of foliar spray per tray of plant cultures were applied mechanically in a single pass. Controls were placed in the same location and given identical irrigation and handling as the treated plants. To compare the effects of treatments under tightly controlled conditions, plants were cultured, harvested, cleaned and weighed as per previously described methods. Treated plants were statistically analyzed in comparisons against controls. Each survey population held sufficient replicate sample numbers to make meaningful statistical analyses utilizing SPSS® software. Significance was determined at the 95% confidence interval (CI) of the difference. Counts of population numbers are denoted as “n” values. For experiments, radish “Cherry Bell” Raphanus sativus L., a root crop was planted and treated. […] Therefore, least concentrations were selected for statistical experimentation; and 200 l/ha foliar 1 mM MeM or 0.3 mM APM in nutrient-supplemented formulations were applied to 5 cm tall sprouts; while, Nutrient Controls were given foliar applications of identical solutions without the α-D-glycopyranosides; and no foliar solutions were applied to untreated controls which were otherwise identically cultivated and irrigated. For our quantification experiments, when improvements of root productivity over those of nutrient controls were visibly discernible 12 d after treatment, all populations of controls and treatments were harvested, and individual dry weights of treatment and control populations were analyzed.

Radish seedlings = test: Radish seedling assay, immersion in nutrient solution with α-mannosides; format: in vivo; details: for growth response compared to Nutrient Control (visual): 1 mM TAM, 100 μM MP, 25 μM to 500 μM MeM, 10 μM APM
Method: Plants were cultured in research facilities and consistency of response to treatments was achieved by supplementation with chelated calcium and manganese. All plants were regularly given modified Hoagland water-culture nutrients. […] Controls were placed in the same location and all plants were given the same irrigation, fertilizers, and handling, but without the experimental compounds. Plants were matched to controls and treated within a week of emergence of cotyledon and true leaves. The performance of compounds was evaluated by comparing means of individual dry weights of shoots and roots. Statistics applied two-tailed Student's t-test with p-values significant within 95% confidence intervals. Counts of populations are “n” values and standard error is denoted “±SE.” Specialty chemicals included the following: tetramethyl-β-D-glucoside (TMG); tetraacetyl-D-glucopyranose (TAG); pentaacetyl-α-D-mannopyranose (MP); p-amino-phenyl-α-D-mannoside (APM); methyl-α-D-mannoside (MeM) and methylglucoside (MeG). MPG was synthesized. 2,3,4,6-tetra-O-acetyl-D-mannopyranose (αβ) was utilized. As required, MP and APM were dissolved in a lower aliphatic alcohol prior to dilution in aqueous media.
Assay—Radish seedlings were treated with α-mannosides after emergence of radicles. Seedlings were matched and transferred to Nutrient Control or treatment solutions. Assays were maintained under environmental conditions as follow: Photosynthetically active radiation 100 μEin·m^−2·sec^−1, diel cycle of 16:8 h light:dark, 26:26° C.

[2] = test system: radish (Raphanus sativus L., cultivar "Cherry Bell"); test: Radish seed germination and seedling growth, nutrient omission media; format: in vivo
Method: Treatment of seeds and seedlings by aqueous solutions is exemplified by mannosides supplemented with soluble divalent cations in complete mannosides formulations. […] Benefits of such exemplary seed priming methods are as follows: Germination and early growth of radish (Raphanus sativus L., cultivar “Cherry Bell”) and Swiss Chard (Beta vulgaris subspecies cicla L., cultivar “Fordhook® Giant”) were tested for response to α-mannosides supplemented with Ca^2+ and/or Mn^2+. Rapid assays of radish seed germination and growth used hydroponic cultures with no solid medium; longer experiments with Swiss Chard used a 2-5 mm substratum of 700 μm diameter glass microbeads. Neutralization of glass microbeads may be undertaken with dilute mildly acidic solution titrated to pH 6; for example, with mineral acids such as hydrochloric acid, sulfuric acid, nitric acid, and the like; organic acids such as uronic, citric, malic, lactic, salicylic, ascorbic, succinic, oxaloacetic, ketoglutaric, fumaric acids, and amino acids, and the like; artificial biological buffering agents such as TRIS, BIS TRIS, MES, MOPS, HEPES, and the like; fertilizers; and most preferably, phosphates; and the most highly preferred compounds are combinations of compounds in a pH 6-buffer that provide major nutrients for plants, such as MAP with DKP or DAP with MKP; and the like. When test medium was added, the glass microbeads formed an even layer, drawing liquid to the surface by capillary action. Seeds were examined to exclude aberrantly large, small, or damaged seeds, and were placed on the surface of the substratum. For experiments using post-germination seedlings, seeds were germinated in deionized water prior to exposure to nutrient media. A seed with an emerged radicle >1 mm was recorded as germinated, and germinated seeds were counted daily, until 95% germination. There was no visible evidence of either desiccation or waterlogging effects. Glass microbeads were removed by immersion and agitation in water, or manually with fine forceps. Harvested plants were oven-dried to determine dry weight. Treatment and control solutions were prepared by dissolving nutrients in deionized ultrapure water.
Growth media were based on omission or inclusion of glycosides and targeted divalent cations. Triose is the abbreviation for α-1,3-α-1,6 mannotriose) and MEM is methyl-α-D-mannoside. Terminology used herein indicates the omission or inclusion of nutrients: 000=control medium with no glycoside, Ca^2+ or Mn^2+; MeMOO=medium with MeM, but no Ca^2+ or Mn^2+; MeMCaO=medium with MeM and Ca^2+, but no Mn^2+, OCaMn=medium with no MeM, but with Ca^2++Mn^2+; and so on. Similar terminology is used for media containing triose. Results cited are means±SE. […]

radish = test: Foliar application to radish grown hydroponically in 700 μm microbeads; format: in vivo; details: with 3 ppm Mn, 6 ppm Ca
Method: Approximately 200 grams of beads/cell filled individual 100 cc cells of plastic flats. Roots of radish are cultivated hydroponically by immersion of roots in 700 μm nmd shot, pre-moistened with buffered nutrient solution that included soluble Mn and Ca, and plants were allowed to grow for 72 h prior to treatment with aminophenyl-α-D-mannopyranoside.
4-aminophenyl-α-D-mannopyranoside was dissolved in water (APM needs first to be solubilized in a small volume (1 ml) of ethanol prior to being added into water) with 3 ppm Mn as EDTA, 6 ppm Ca as EDTA, 10% isopropyl alcohol and 1.5 g/L Pluronic L-62. A solution of the formulation was applied to radish foliage. When compared to an identical control formulation without the aminophenyl-α-D-mannopyranoside, the above formulation provided a 20% root increase. For aminophenyl-α-D-mannopyranoside, the proper dose for radish is between 1 to 100 μg per plant and preferably between 5 to 50 μg per plant. This is the equivalent to an application of 75 to 100 gallons per acre at a preferred volume of 100 gallons per acre of up to 2 gm/liter.

Crocus = test: Rooted Crocus cultivated in 700 μm silicate microbeads, treated with formulation; format: in vivo; details: 0.3 mM APM with 3 ppm Mn, 6 ppm Ca; Crocus in 700 μm microbeads
Method: Individual plants were started from seeds, bulbs, or vegetative clones, inserted into containers of pre-moistened microbeads. Seedlings included ryegrass and corn; bulbs were of Crocus and paperwhite narcissus; and vegetative cuttings were from Coleus. Seeds generally germinated and were selected according to day of emergence of first roots as control and treatment sets. Roots were treated thereafter.
Plants were cultivated under controlled environmental conditions as follow: GE Ecolux® plant and aquarium F40T12 fluorescent illumination, photosynthetically active radiation (PAR) of 100 μEin·m^−2·s^−1, diel cycle of 16:8 h light:dark, 28:26° C., 10% to 20% relative humidity. Indoxyl glycopyranoside (IG) was formulated in water and applied and controls were given equal volumes of water without IG. […] Clear plastic 500 cc containers, perforated for drainage, were filled to a depth of 10 cm with up to 900 grams of microbeads each. Initially, basal plates of bulbs were immersed 1 cm into moistened 700 μm nmd silicate beads to initiate rooting. […] Controls were treated with addition of 0.1 ml water to their media. After 8 h uptake of the treatments, fertigation resumed in a manner consistent with pH-control. […]
For all experiments, at 7 d to 14 d after treatment, microbeads were saturated with water. […] For paperwhites, volumes of entire roots were measured by displacement of water in glass beakers.

With `OC[C@H]1O[C@H](O[C@H]2[C@H](O)[C@@H](O)C(O)O[C@@H]2CO)[C@H](O)[C@@H](O)[C@@H]1O` (mixture of isomers) [maltose] as the compound, how does the “potency relative to alpha-MeG” value (plants) read?
The value was “lower potency”.

What about the “potency relative to beta-MeG” value (plants) of the same compound?
Its value is 9 ×.

With `CO[C@H]1O[C@H](CO)[C@@H](O)[C@H](O)[C@H]1O` [MeG, methyl-α-D-glucopyranoside, reference compound] as the compound, how does the “productivity over nutrient and untreated controls” value ([1]; foliar 129 mM with Ca, Mn and ammoniacal nitrogen) read?
Its value is “consistently increased productivities”.

And the “active concentration applied for growth response” value [1]?
The value was 129 mM.

Which results are given for `CC(=O)OC[C@H]1O[C@H](OC(C)=O)[C@@H](OC(C)=O)[C@@H](OC(C)=O)[C@@H]1OC(C)=O` [MP, pentaacetyl-α-D-mannopyranose]?
mean dry weight of whole plants (Radish seedlings; 100 μM, 48 h): 8.2 mg; growth response compared to Nutrient Control (visual) (Radish seedlings; 48 h): advanced growth responses; potency compared with the mixed anomers (Radish seedlings; effective doses 100 μM MP and 1 mM TAM): higher potency

Which “mean dry weight of whole plants” value (Radish seedlings; 100 μM, 48 h) does the source give for `CC(=O)OC[C@H]1OC(O)[C@@H](OC(C)=O)[C@@H](OC(C)=O)[C@@H]1OC(C)=O` (stereo partly drawn) [TAM, 2,3,4,6-tetra-O-acetyl-D-mannopyranose (αβ)] here?
Its value is 8.1 mg.

And the “difference of mean dry weight from the Nutrient Control” value (Radish seedlings; 100 μM, 48 h, p=0.11)?
The value was “no significant difference”.

What about the “mean dry weight of whole plants” value (Radish seedlings; 1 mM, 48 h) of the same compound?
Its value is 8.8 mg.

And the “growth response compared to Nutrient Control (visual)” value (Radish seedlings; 48 h)?
The value was “advanced growth responses”.

Which results are given for `OC[C@H]1O[C@H](OC[C@H]2OC(O)[C@@H](O)[C@@H](O[C@H]3O[C@H](CO)[C@@H](O)[C@H](O)[C@@H]3O)[C@@H]2O)[C@@H](O)[C@@H](O)[C@@H]1O` (stereo partly drawn) [triose, α-1,3-α-1,6 mannotriose]?
seedling growth compared with no triose ([2]; 1 μM triose, lacking Ca2+): comparable to seedlings grown with no triose; mean dry weight compared with medium with no triose ([2]; 0.3, 1 or 10 μM triose with Mn2+ and Ca2+, 1 day treatment, second day): significantly greater; concentration at which no growth enhancement was observed ([2]; radish seedlings, complete media): less than 0.3 μM

What does the source list for `Nc1ccc(O[C@H]2O[C@H](CO)[C@@H](O)[C@H](O)[C@@H]2O)cc1` [APM, 4-amino-phenyl-α-D-mannopyranoside]?
mean dry weight of whole plants (Radish seedlings; 5 μM, 48 h): 9.4 mg; difference of mean dry weight from the Nutrient Control (Radish seedlings; 5 μM, 48 h, p=0.06): not significantly different; also recorded: no significant difference; mean dry weight of whole plants (Radish seedlings; 10 μM, 48 h): 10.3 mg; enhancement of mean dry weight over Nutrient Control (Radish seedlings; 100 μM, 48 h): 10%; mean dry weight of whole plants (Radish seedlings; 100 μM, 48 h): 11 mg; growth response compared to Nutrient Control (visual) (Radish seedlings; 48 h): advanced growth; root mean dry weight over the Nutrient Control ([1]; foliar 0.3 mM with nutrients): significant (n=72; p=0.003) increase; root mean dry weight increase over controls ([1]; foliar 0.3 mM, 200 l/ha, harvest 12 d after treatment, n=72, p=0.003): approximately 20%; active concentration applied for growth response [1]: 0.3 mM; root increase compared to identical control formulation (radish): 20%; root and shoot development / productivity compared to Control (Crocus): clearly advanced productivity; also recorded: advanced root and shoot development
